Assay [1] has as its target recombinant human cannabinoid 1 receptor (CB1) (Homo sapiens, UniProt P21554). As to the kind of experiment: [35S]GTPγS binding assay, antagonism to CB1-receptor (Pharmacological methods, part V). Format: biochemical. Conditions: compound at 1 μM against agonist WIN 55,212-2; 100% = effect of Rimonabant (1 μM); CHO membranes. How it is done: V. In vitro Determination of Antagonism to CB1-Receptor
Chinese hamster ovary (CHO) cells stably expressing recombinant human cannabinoid 1 receptor (CB1) were cultured in nutrient mixture Ham's F 12 supplemented with 10% heat-inactivated fetal bovine serum, 2 mM L-glutamine, 50 U/ml penicillin, 50 U/ml streptomycin and 0.5 mg/ml geneticin. In order to obtain cells, culture flasks were washed twice with phosphate buffered saline and scraped. Then, cells were collected by centrifugation (200×g, 10 min) and stored dry at −80° C. Cells were homogenized in ice-cold 20 mM HE PES, 10 mM EDTA (pH 7.5) and centrifuged at 40,000×g for 15 min at 4° C. The pellet was resuspended in 20 mM HEPES, 0.1 mM EDTA (pH 7.5) and centrifuged for 15 min at 4° C. The final pellet was resuspended in 20 mM HEPES, 0.1 mM EDTA (pH 7.5), and divided in aliquots and stored at −80° C. until use.
[^35S]GTPγS Binding Assay:
The reaction was performed in 96-well plates. […] The incubation was terminated by rapid filtration through Millipore Multiscreen glass fiber FB, and rinsed two-times with ice-cold assay buffer. Filter plates were dried and 30 μl of scintillation liquid was added. Radioactivity was determined using Wallac Microbeta Trilux. Each experiment was performed at least in duplicate.
The average of basal [35S]GTPγS binding was subtracted from all binding data.
The antagonism of the pyrazoline compounds of general formula I to the CB1-receptor was determined according to the method described in Pharmacological methods, part V (table 2).
(In general: Binding of GTPγS marks nucleotide exchange on a G protein.)

The target in another assay is CB1-receptor (UniProt P20272). As to the kind of experiment: binding of the pyrazoline compounds to CB1-receptors (Pharmacological Methods, Part I). Further details: IC50; species or system human or rat. Conditions: radioligand [3H]-CP55940, read-out: IC50. In outline: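 Rat cerebellum membranes (male Wistar), 100 μg protein, competed against 1 nM [3H]-CP 55,940 in 50 mM Tris-HCl, 5 mM MgCl2, 1 mM EDTA, 0.5% BSA, pH 7.4; 1 h at 30 °C. Non-specific binding with 10 μM HU-210; filtration and scintillation counting, triplicates, non-linear regression.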

recombinant human cannabinoid 1 receptor (CB1), sequence (P21554 whole entry): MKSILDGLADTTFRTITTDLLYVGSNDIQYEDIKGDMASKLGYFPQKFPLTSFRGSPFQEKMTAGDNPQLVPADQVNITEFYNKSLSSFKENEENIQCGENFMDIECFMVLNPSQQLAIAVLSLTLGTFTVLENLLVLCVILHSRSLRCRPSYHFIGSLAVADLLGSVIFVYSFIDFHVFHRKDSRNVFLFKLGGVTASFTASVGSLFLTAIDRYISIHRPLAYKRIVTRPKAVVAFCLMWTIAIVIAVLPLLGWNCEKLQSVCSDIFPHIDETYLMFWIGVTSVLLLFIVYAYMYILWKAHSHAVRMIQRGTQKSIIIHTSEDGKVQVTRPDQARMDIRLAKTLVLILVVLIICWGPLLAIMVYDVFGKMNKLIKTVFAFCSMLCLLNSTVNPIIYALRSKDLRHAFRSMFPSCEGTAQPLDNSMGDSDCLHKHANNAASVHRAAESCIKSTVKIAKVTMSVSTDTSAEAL

For the molecule `C[C@@H]1C(C(=O)NN2CCCCC2)=NN(c2ccc(Cl)cc2Cl)[C@@H]1c1cccs1.Cl` (relative stereo) [Example 430, cis-1-(2,4-dichlorophenyl)-4-methyl-N-(piperidin-1-yl)-5-(thiophen-2-yl)-4,5-dihydro-1H-pyrazole-3-carboxamide hydrochloride], in assay [1], the Antagonism was 23%. Besides, the IC50 at CB1-receptor was more than 1000 nM.

With `CC[C@@H]1C(C(=O)NN2CCCCC2)=NN(c2ccc(Cl)cc2Cl)[C@@H]1c1ccc(Cl)cc1` (relative stereo) [Example 432, cis-5-(4-chlorophenyl)-1-(2,4-dichlorophenyl)-4-ethyl-N-(piperidin-1-yl)-4,5-dihydro-1H-pyrazole-3-carboxamide], the Antagonism in assay [1] is reported as 89%. For the same molecule, the IC50 at CB1-receptor worked out at 89 nM.

One may read the IC50 as the concentration that gives 50% inhibition.

The values above are taken from patent US20070073056A1, “4-Substituted Pyrazoline Compounds, their Preparation and Use as Medicaments” (LABORATORIOS DEL DR. ESTEVE, S.A., priority 2005, published 2007).
